From patent US10844002B2, “Lipids and lipid compositions for the delivery of active agents” (priority 2014, dated 2020)
Where “and” joins values, the source holds several entries; their conditions need not be identical. Identical values can stand only once.

Experiments:
[1] = Measurement of mRNA encapsulation in lipid nanoparticles (Quant-iT Ribogreen); type: physicochemical; settings: LNP cationic lipid/DSPC/cholesterol/stealth lipid, N:P 4:1, leptin mRNA
Method: All equipment and disposable supplies are certified free of RNase activity by the manufacturer or rendered RNase free by use of the RNaseZap reagent (LifeTechnologies). mRNA is encapsulated at a cationic lipid amine to mRNA phosphate (N:P) molar ratio of 4:1. Lipids (cationic lipid, DSPC, cholesterol and lipidated PEG or stealth lipid) are dissolved in ethanol. The molar ratios are 40:10:38:2, respectively. The mixture is sonicated briefly, then gently agitated for 5 minutes and then maintained at 37° C. until use. mRNA is exchanged into citrate buffer pH 5.8-6.0 by use of Amicon Ultra-15 centrifugal concentrators, and the final concentration is adjusted to 0.5 mg/ml and held at 37° C. until use. An equal volume of lipids in ethanol, mRNA in citrate buffer, and citrate buffer alone are drawn into disposable syringes. Tubing leading from syringes containing lipids and mRNA are attached to the T junction, and tubing leading from the syringe containing citrate buffer alone is paired with the tubing exiting the T-junction over a collection vessel containing a stir bar on an active stir plate. Syringes are placed in a syringe pump set to expel contents at a flow rate of 1 ml per minute.
The pump is activated, and the collected mRNA in lipid nanoparticles is transferred to SnakeSkin dialysis tubing (10,000 MWCO, Thermo Scientific). Material is dialyzed against RNAse- and pyrogen-free 1× phosphate buffered saline overnight at 4° C.
Percent encapsulation of mRNA in lipid nanoparticles is determined using the Quant-iT Ribogreen RNA Assay kit (Life Technologies). The LNP-mRNA suspension is assayed in buffer (mRNA outside the particle), and buffer plus Triton X-100 detergent (total mRNA). The difference calculated is the mRNA inside the particle. Prepare a 1000 ng/mL stock from the RNA provided in the kit and use this to generate a standard curve (0 ng/ml, 15.63-1000 ng/ml) in TE and TE+0.75% Triton X-100. Prepare LNP-mRNA samples in TE buffer and TE buffer+0.75% Triton X-100 with appropriate dilution so that reading is in the range of standard curve (400-2,000 fold). In a 384-well plate (Costar non-treated #3573) add 0.04 ml of standard (in duplicate) or sample (in triplicate) per well. Dilute Ribogreen reagent 240-fold in TE buffer and add 0.06 ml per well. Mix contents of wells and measure fluorescence (excitation=480 nm, emission=520 nm). Subtract background values (no RNA) from standard and test sample values and determine the concentrations of RNA in the samples using the standard curves. Determine the percent encapsulation of the sample by dividing the difference in concentrations between sample+triton and sample in buffer alone by the sample+triton concentration.

RSV F protein = type: in vivo; settings: Table 4; BALB/c mice, intramuscular, 1 ng vA375 replicon in LNP, days 0 and 21
[2] = test system: H1N1 influenza A strain, Ca107; test: Immunogenicity in ferret models (Influenza): haemagultanin inhibition (HAI) titers; type: in vivo, ferrets; settings: IM
Method: For immunization in ferrets, a lipid working solution was freshly prepared by dissolving 22.5 mg of Example 1, 5.9 mg of DSPC, 13.9 mg of Cholesterol and 4.0 mg of PEG2000-conjugated DMPE (cat #880150P, Avanti Polar Lipids, Inc.) in 10 ml ethanol. A 10 mL working solution of RNA was also prepared at a concentration of 0.125 mg/ml in 100 mM citrate buffer (pH 6). The working lipid and RNA solutions were heated at 37° C. for 5 min before being loaded into two 10 cc luer-lok syringes. […] The outlet from the T mixer was also FEP tubing separately, 10 mL of citrate buffer (pH 6) was loaded in a third 10 cc syringe which was connected to a separate piece of tubing. All three syringes were loaded on a syringe pump and driven at 1.0 ml/min. The tubing outlets were positioned to collect the mixtures in a 20 mL glass vial which was gently stirred using a stirring bar. All glass vials were baked at 250° C. for 12 hours prior to experiment to completely inactivate any RNase contaminant. At the end of mixing, the stir bar was taken out and the ethanol/aqueous solution was allowed to equilibrate to room temperature for 1 hour. After incubation, the ethanol/aqueous solution was loaded into a syringe, and mixed with equal volume of 100 mM citrate buffer (pH 6) using the aforementioned Tee-junction process. Next, LNPs were concentrated to 20 mL and dialyzed against 10-15 volumes of 1× PBS using by tangential flow filtration before recovering the final product. The TFF system and hollow fiber filtration membranes were purchased from Spectrum Labs (Rancho Dominguez) and were used according to the manufacturer's guidelines. Polysulfone hollow fiber filtration membranes with a 100 kD pore size cutoff and 8 cm^2 surface area were used. For in vitro and in vivo experiments formulations were diluted to the required RNA concentration with 1×. PBS.
A total of seven experimental groups with six animals per group (42 animals) were used in this study; two vaccine doses of each RNA formulation (Groups 2-5), two groups vaccinated with a non-adjuvated (H1N1 subunit) or an adjuvated (MF59/H1N1 subunit) commercially available H1N1 influenza subunit vaccine (Groups 6 and 7) and a mock vaccinated group (Group 1). The RNA test vaccines were derived from a recombinant DNA plasmid (pDNA) carrying an alphavirus genome in which the structural genes were replaced with the HA gene from the H1N1 influenza A strain, Ca107. The RNA was then formulated in either cationic oil-in-water emulsion (CNE) or LNP for delivery to host cells via intramuscular (IM) injection. RNA concentrations for each formulation study group were 15 and 45 mcg for CNE and 5 and 15 mcg for LNP. The H1N1 subunit vaccines were used at a HA subunit protein concentration of 15 mcg. Non-vaccinated animals were mock vaccinated with a vehicle control for the RNA test vaccines. All test vaccines were administered by IM injection on Study Days (SD) 0 followed with a booster vaccination on Study Day 56 (8 weeks post 1st immunization).
Table 5 summarizes Influenza microneutralization data and table 6 the haemagultanin inhibition (HAI) titers. The LNP formulation tested generated immune responses with as little as 5 μg of self-amplifying RNA, as determined by increased HA-specific neutralization and HAI titers.

SMILES: CCCCC/C=C\C/C=C\CCCCCCCCOc1ccc(OCCCCCCCC/C=C\C/C=C\CCCCC)c(COC(=O)CCCN(C)C)c1 [Example 1, 2,5-bis((9Z,12Z)-octadeca-9,12-dien-1-yloxy)benzyl 4-(dimethylamino)butanoate]
- % encapsulation (mRNA Leptin) [1]: 73.3%
- Log10(IgG titer), 1 ng RNA (RSV-F), 2 weeks post 2nd immunization (RSV F protein): 4.43
- Influenza HAI titer ([2]; 5 mcg RNA, 4wp1, per animal): 20 (2×) and 80 and 40 (2×) and 10
- Influenza HAI titer ([2]; 5 mcg RNA, 4wp2, per animal): 640 (2×) and >20480 (3×) and 320
- Influenza HAI titer ([2]; 5 mcg RNA, 8wp1, per animal): 20 (2×) and 40 (2×) and 10 and <10
- Influenza HAI titer ([2]; 5 mcg RNA, Pre-bleed, per animal): <10
- Influenza HAI titer ([2]; 15 mcg RNA, 4wp1, per animal): 160 (2×) and 320 and 80 (2×) and 40
- Influenza HAI titer ([2]; 15 mcg RNA, 4wp2, per animal): 640 (4×) and >20480 (2×)
- Influenza HAI titer ([2]; 15 mcg RNA, 8wp1, per animal): 40 (3×) and 80 (2×) and 20
- Influenza HAI titer ([2]; 15 mcg RNA, Pre-bleed, per animal): <10
